From patent publication US9409898B2, “Substituted pyrazole compounds as CRAC modulators” (LUPIN LIMITED, priority 2012, dated 2016)
pIC50: −log10 of the molar value.

system: IL-2 secretion; assay: Inhibition of IL-2 secretion in PHA-stimulated Jurkat T cells (ELISA); assay type: cell-based; conditions: Homo sapiens, PHA stimulation, 20 to 24 hours, IL-2 by ELISA
Method: The CRAC channel modulatory activity of the compounds were thus evaluated by measuring the secretion of IL-2 by antigen stimulated T-cells in vitro. Alternatively, such activity can also be evaluated by assay methods known to one skilled in the art.
Inhibition of IL-2 secretion: Jurkat T cells were seeded at a density of 0.5 to 1 million cells per well in RPMI medium. Test compounds from this invention were added to the cells at different concentrations. This was followed by the addition of PHA, a T cell mitogen after 10 minutes. The cells were then incubated for 20 to 24 hours in a CO2 incubator at 37° C. After incubation with the compounds, cells were centrifuged, the supernatant was collected and processed for ELISA to quantitate the amount of IL-2 secreted. A commercial ELISA kit (R&D Systems, Inc. Minneapolis, Minn., USA) was used to estimate the IL-2 concentrations. Amount of IL-2 secreted by cells stimulated with PHA was considered as a 100% maximal signal and the decrease in amount of IL-2 secreted by cells treated with the test compounds was expressed as percent inhibition of the maximal signal. The dose response data was analyzed using 4-parametric sigmoidal dose response (variable slope) curve—fit.

Structure (SMILES) | pIC50
Cn1nc(-c2cc(C(F)(F)F)nn2-c2ccc(NC(=O)c3c(F)cccc3F)cn2)oc1=O [Example 1, 2,6-Difluoro-N-(6-(5-(4-methyl-5-oxo-4,5-dihydro-1,3,4-oxadiazol-2-yl)-3-(trifluoromethyl)-1H-pyrazol-1-yl)pyridin-3-yl)benzamide] | 6.00 to 7.00
CN1N=C(c2cc(C(F)(F)F)n(-c3ccc(NC(=O)c4c(F)cccc4F)cn3)n2)C(C)(C)C1=O [Example 16, 2,6-Difluoro-N-(6-(1′,4′,4′-trimethyl-5′-oxo-5-(trifluoromethyl)-4′,5′-dihydro-1H,1′H-[3,3′-bipyrazol]-1-yl)pyridin-3-yl)benzamide] | 6.00 to 7.00
CC(=O)N1N=C(c2cc(C(F)(F)F)n(-c3ccc(NC(=O)c4c(F)cccc4F)cn3)n2)OC1(C)C [Example 20, N-(6-(3-(4-Acetyl-5,5-dimethyl-4,5-dihydro-1,3,4-oxadiazol-2-yl)-5-(trifluoromethyl)-1H-pyrazol-1-yl)pyridin-3-yl)-2,6-difluorobenzamide] | 6.00 to 7.00
Cn1nc(-c2cc(C3CC3)nn2-c2ccc(NC(=O)c3c(F)cccc3F)cn2)oc1=O [Example 30, N-(6-(3-Cyclopropyl 5-(4-methyl-5-oxo-4,5-dihydro-1,3,4-oxadiazol-2-yl)-1H-pyrazol-1-yl)pyridin-3-yl)-2,6-difluorobenzamide] | 6.00 to 7.00
COC(=O)C1(C)CC(c2cc(C(F)(F)F)n(-c3ccc(NC(=O)c4c(F)cccc4F)cn3)n2)=NO1 (centres unmarked) [Example 35, Methyl 3-(1-(5-(2,6-difluorobenzamido)pyridin-2-yl)-5-(trifluoromethyl)-1H-pyrazol-3-yl)-5-methyl-4,5-dihydroisoxazole-5-carboxylate] | 6.00 to 7.00
CCc1ccc(C(=O)Nc2ccc(-n3nc(-c4nn(C)c(=O)o4)cc3C(F)(F)F)cn2)cc1 [Example 49, 4-Ethyl-N-(5-(3-(4-methyl-5-oxo-4,5-dihydro-1,3,4-oxadiazol-2-yl)-5-(trifluoromethyl)-1H-pyrazol-1-yl)pyridin-2-yl)benzamide] | 6.00 to 7.00
CC1(CO)CC(c2cc(C(F)(F)F)n(-c3ccc(NCc4c(F)cccc4Cl)cn3)n2)=NO1 (centres unmarked) [Example 34, (3-(1-(5-((2-Chloro-6-fluorobenzyl)amino)pyridin-2-yl)-5-(trifluoromethyl)-1H-pyrazol-3-yl)-5-methyl-4,5-dihydroisoxazol-5-yl)methanol] | 6.00 to 7.00
CC1(C)COC(c2cc(C(F)(F)F)n(-c3ccc(NCc4c(F)cccc4F)cn3)n2)=N1 [Example 28, N-(2,6-Difluorobenzyl)-6-(3-(4,4-dimethyl-4,5-dihydrooxazol-2-yl)-5-(trifluoromethyl)-1H-pyrazol-1-yl)pyridin-3-amine] | 6.00 to 7.00
Cn1nc(-c2cc(C(F)F)nn2-c2ccc(NCc3c(F)cccc3F)cn2)oc1=O [Example 13, 5-(1-(5-((2,6-Difluorobenzyl)amino)pyridin-2-yl)-3-(difluoromethyl)-1H-pyrazol-5-yl)-3-methyl-1,3,4-oxadiazol-2(3H)-one] | < 6.00

More lines, now with the values ahead:

pIC50 | Structure (SMILES)
> 7.00 | Cc1cccc(F)c1C(=O)Nc1ccc(-n2nc(C3=NN(C)C(=O)C3(C)C)cc2C(F)(F)F)nc1 [Example 18, 2-Fluoro-6-methyl-N-(6-(1′,4′,4′-trimethyl-5′-oxo-5-(trifluoromethyl)-4′,5′-dihydro-1H,1′H-[3,3′-bipyrazol]-1-yl)pyridin-3-yl)benzamide]
> 7.00 | Cn1nc(-c2cc(C(F)(F)F)n(-c3ccc(NC(=O)c4ccc(F)cc4F)nc3)n2)oc1=O [Example 45, 2,4-Difluoro-N-(5-(3-(4-methyl-5-oxo-4,5-dihydro-1,3,4-oxadiazol-2-yl)-5-(trifluoromethyl)-1H-pyrazol-1-yl)pyridin-2-yl)benzamide]
6.00 to 7.00 | CN1N=C(c2cc(C(F)(F)F)n(-c3ccc(NCc4c(F)cccc4Cl)cn3)n2)C(C)(C)C1=O [Example 25, 1′-(5-((2-Chloro-6-fluorobenzyl)amino)pyridin-2-yl)-1,4,4-trimethyl-5′-(trifluoromethyl)-1H,1′H-[3,3′-bipyrazol]-5(4H)-one]
> 7.00 | CC1(CO)CC(c2cc(C(F)(F)F)n(-c3ccc(NCc4c(F)cccc4F)cn3)n2)=NO1 (centres unmarked) [Example 33, (3-(1-(5-((2,6-Difluorobenzyl)amino)pyridin-2-yl)-5-(trifluoromethyl)-1H-pyrazol-3-yl)-5-methyl-4,5-dihydroisoxazol-5-yl)methanol]
6.00 to 7.00 | Cc1cccc(F)c1C(=O)Nc1ccc(-n2nc(C(F)(F)F)cc2-c2nn(C)c(=O)o2)nc1 [Example 2, 2-Fluoro-6-methyl-N-(6-(5-(4-methyl-5-oxo-4,5-dihydro-1,3,4-oxadiazol-2-yl)-3-(trifluoromethyl)-1H-pyrazol-1-yl)pyridin-3-yl)benzamide]
> 7.00 | Cn1nc(-c2cc(C(F)(F)F)n(-c3ccc(NCc4c(F)cccc4Cl)nc3)n2)oc1=O [Example 52]
> 7.00 | Cn1nc(-c2cc(C(F)(F)F)n(-c3ccc(NC(=O)c4ccccc4Cl)nc3)n2)oc1=O [Example 47, 2-Chloro-N-(5-(3-(4-methyl-5-oxo-4,5-dihydro-1,3,4-oxadiazol-2-yl)-5-(trifluoromethyl)-1H-pyrazol-1-yl)pyridin-2-yl)benzamide]
6.00 to 7.00 | Cn1c(-c2cc(C(F)(F)F)n(-c3ccc(NCc4c(F)cccc4F)cn3)n2)noc1=O [Example 26, 3-(1-(5-((2,6-Difluorobenzyl)amino)pyridin-2-yl)-5-(trifluoromethyl)-1H-pyrazol-3-yl)-4-methyl-1,2,4-oxadiazol-5(4H)-one]
> 7.00 | Cn1nc(-c2cc(C(F)(F)F)n(-c3ccc(NC(=O)c4cc(F)c(F)cc4F)nc3)n2)oc1=O [Example 43, 2,4,5-Trifluoro-N-(5-(3-(4-methyl-5-oxo-4,5-dihydro-1,3,4-oxadiazol-2-yl)-5-(trifluoromethyl)-1H-pyrazol-1-yl)pyridin-2-yl)benzamide]
> 7.00 | Cn1nc(-c2cc(C(F)(F)F)n(-c3ccc(NC(=O)c4ccc(F)c(F)c4F)nc3)n2)oc1=O [Example 44, 2,3,4-Trifluoro-N-(5-(3-(4-methyl-5-oxo-4,5-dihydro-1,3,4-oxadiazol-2-yl)-5-(trifluoromethyl)-1H-pyrazol-1-yl)pyridin-2-yl)benzamide]
> 7.00 | Cc1cccc(F)c1CNc1ccc(-n2nc(-c3nn(C)c(=O)o3)cc2C(F)(F)F)cn1 [Example 53, 5-(1-(6-((2-Fluoro-6-methylbenzyl)amino)pyridin-3-yl)-5-(trifluoromethyl)-1H-pyrazol-3-yl)-3-methyl-1,3,4-oxadiazol-2(3H)-one]
> 7.00 | Cn1nc(-c2cc(C(F)(F)F)n(-c3ccc(NC(=O)c4c(F)cccc4F)nc3)n2)oc1=O [Example 38, 2,6-Difluoro-N-(5-(3-(4-methyl-5-oxo-4,5-dihydro-1,3,4-oxadiazol-2-yl)-5-(trifluoromethyl)-1H-pyrazol-1-yl)pyridin-2-yl)benzamide]
> 7.00 | Cc1cccc(F)c1C(=O)Nc1ccc(-n2nc(-c3nn(C)c(=O)o3)cc2C(F)(F)F)cn1 [Example 40, 2-Fluoro-6-methyl-N-(5-(3-(4-methyl-5-oxo-4,5-dihydro-1,3,4-oxadiazol-2-yl)-5-(trifluoromethyl)-1H-pyrazol-1-yl)pyridin-2-yl)benzamide]
> 7.00 | Cn1nc(-c2cc(C(F)(F)F)n(-c3ccc(NCc4c(F)cccc4Cl)cn3)n2)oc1=O [Example 23, 5-(1-(5-((2-Chloro-6-fluorobenzyl)amino)pyridin-2-yl)-5-(trifluoromethyl)-1H-pyrazol-3-yl)-3-methyl-1,3,4-oxadiazol-2(3H)-one]
